Test results taken from DBAASP.
In brackets after ≈: the same amount, converted by molar mass.

Experiments:
Experiment in all cases: ≥ marks a high value that may be exact or a test limit, other limits are often not marked, values filed in µg/mL are converted to µM
[1] = system: Escherichia coli DH5alpha
[2] = system: Micrococcus luteus ATCC 4698
[3] = system: Staphylococcus aureus ATCC 6538
[4] = system: Staphylococcus epidermidis ATCC 12228
Bacillus subtilis = system: Bacillus subtilis
Escherichia coli = system: Escherichia coli
Klebsiella pneumoniae = system: Klebsiella pneumoniae
Micrococcus luteus = system: Micrococcus luteus
Proteus mirabilis = system: Proteus mirabilis
Pseudomonas aeruginosa = system: Pseudomonas aeruginosa
Salmonella typhimurium = system: Salmonella typhimurium
Shigella dysenteriae = system: Shigella dysenteriae
Staphylococcus aureus = system: Staphylococcus aureus
[5] = system: Staphylococcus epidermidis
[6] = system: Escherichia coli ATCC 25922
Serratia marcescens = system: Serratia marcescens
[7] = system: Staphylococcus aureus ATCC 2592
Bacillus subtilis 168 = system: Bacillus subtilis 168
[8] = system: Candida albicans F7-39/IDE99
Escherichia coli B = system: Escherichia coli B
[9] = system: Bacillus subtilis ATCC 6633
[10] = system: Klebsiella pneumoniae ATCC 10031
[11] = system: Micrococcus luteus ATCC 10240
[12] = system: Pseudomonas aeruginosa ATCC 27853
[13] = system: Salmonella enterica subsp. enterica serovar Typhimurium ATCC 14028
[14] = system: Shigella dysenteriae ATCC 9752
[15] = system: Staphylococcus aureus ATCC 6538P
[16] = system: Staphylococcus aureus TK784
Acinetobacter baumannii = system: Acinetobacter baumannii
Escherichia coli UB1005 = system: Escherichia coli UB1005
[17] = system: Salmonella enterica subsp. enterica serovar Typhimurium C77-31
[18] = system: Staphylococcus aureus ATCC 25923
[19] = system: Staphylococcus aureus ATCC 29213

CC(C)C[C@H](NC(=O)[C@H](C)NC(=O)CNC(=O)[C@H](CC(C)C)NC(=O)[C@@H](N)Cc1ccccc1)C(=O)N[C@@H](Cc1ccccc1)C(=O)N[C@@H](CCCCN)C(=O)N[C@@H](C)C(=O)N[C@@H](CC(C)C)C(=O)N[C@@H](CO)C(=O)N[C@@H](CCCCN)C(=O)N[C@@H](CC(C)C)C(=O)N[C@H](C(=O)O)C(C)C [FLGALFKALSKLV]
MIC [1]: ≥ 35.5 µM | MIC [2]: 4.27 µM (≈ 6 µg/mL) | MIC [3]: 7.82 µM (≈ 11 µg/mL) | MIC [4]: 12.8 µM (≈ 18 µg/mL)

CC(C)C[C@H](NC(=O)[C@H](C)NC(=O)CNC(=O)[C@H](CC(C)C)NC(=O)[C@@H](N)Cc1ccccc1)C(=O)N[C@@H](Cc1ccccc1)C(=O)N[C@@H](CCCCN)C(=O)N[C@H](C(=O)N[C@@H](C)C(=O)N[C@@H](CO)C(=O)N[C@@H](CCCCN)C(=O)N[C@H](C(=O)O)C(C)C)C(C)C [FLGALFKVASKV]
MIC (Bacillus subtilis): ≥ 156 µM | MIC (Escherichia coli): > 156 µM | MIC (Klebsiella pneumoniae): > 156 µM | MIC (Micrococcus luteus): ≥ 156 µM | MIC (Proteus mirabilis): ≥ 156 µM | MIC (Pseudomonas aeruginosa): > 156 µM | MIC (Salmonella typhimurium): ≥ 156 µM | MIC (Shigella dysenteriae): ≥ 156 µM | MIC (Staphylococcus aureus): > 156 µM | MIC [5]: ≥ 156 µM

CC[C@H](C)[C@@H]1NC(=O)[C@H](CCCCN)NC(=O)[C@@H](NC(=O)[C@H](CCSC)NC(=O)[C@H](CC(C)C)NC(=O)[C@@H]2CCCN2C(=O)[C@H](Cc2ccccc2)NC(=O)[C@H](CC(C)C)NC(=O)[C@H](CC(C)C)NC(=O)[C@@H](N)Cc2ccccc2)CSSC[C@@H](C(=O)O)NC(=O)[C@H](CCCCN)NC(=O)CNC(=O)[C@H](CCC(N)=O)NC1=O [FLLFPLMCKIQGKC]
MIC [6]: > 60.9 µM | MIC (Klebsiella pneumoniae): > 60.9 µM | MIC (Serratia marcescens): ≥ 60.9 µM | MIC [7]: 22.9 µM (≈ 37.5 µg/mL)

CC(C)C[C@H](NC(=O)[C@H](CC(C)C)NC(=O)[C@H](CCCCN)NC(=O)[C@H](CO)NC(=O)[C@H](CC(C)C)NC(=O)[C@H](C)NC(=O)[C@H](CCCCN)NC(=O)[C@H](Cc1ccccc1)NC(=O)[C@H](CC(C)C)NC(=O)[C@H](C)NC(=O)CNC(=O)[C@@H](NC(=O)[C@@H](N)Cc1ccccc1)C(C)C)C(=O)O [FVGALFKALSKLL]
MIC [1]: ≥ 35.5 µM | MIC [2]: 4.27 µM (≈ 6 µg/mL) | MIC [3]: 8.53 µM (≈ 12 µg/mL) | MIC [4]: 15.6 µM (≈ 22 µg/mL)

CC(C)C[C@H](NC(=O)[C@@H](NC(=O)[C@H](CCCCN)NC(=O)[C@H](CCCCN)NC(=O)[C@H](CC(C)C)NC(=O)[C@H](CC(C)C)NC(=O)[C@H](CCCCN)NC(=O)[C@H](CC(C)C)NC(=O)[C@H](C)NC(=O)[C@H](CCCCN)NC(=O)CNC(=O)[C@H](Cc1ccccc1)NC(=O)CN)C(C)C)C(N)=O [GFGKALKLLKKVL]
MIC (Bacillus subtilis 168): 1.8 µM (≈ 2.54 µg/mL) | MIC [8]: 5 µM (≈ 7.07 µg/mL) | MIC (Escherichia coli B): 2.5 µM (≈ 3.53 µg/mL) | MIC (Pseudomonas aeruginosa): 10 µM (≈ 14.1 µg/mL) | MIC (Staphylococcus aureus): 10 µM (≈ 14.1 µg/mL)

CC(C)C[C@H](NC(=O)[C@H](CC(C)C)NC(=O)[C@H](CCCCN)NC(=O)[C@H](CCCCN)NC(=O)[C@H](CC(C)C)NC(=O)[C@H](Cc1c[nH]c2ccccc12)NC(=O)[C@H](CCCCN)NC(=O)[C@H](CC(C)C)NC(=O)[C@H](CC(C)C)NC(=O)[C@@H](N)CCCCN)C(=O)N[C@@H](CCCCN)C(N)=O [KLLKWLKKLLK]
MIC [9]: 1.42 µM (≈ 2 µg/mL) | MIC [6]: 1.42 µM (≈ 2 µg/mL) | MIC [10]: 1.42 µM (≈ 2 µg/mL) | MIC [11]: 1.42 µM (≈ 2 µg/mL) | MIC [12]: 5.67 µM (≈ 7.99 µg/mL) | MIC [13]: 1.42 µM (≈ 2 µg/mL) | MIC [14]: 1.42 µM (≈ 2 µg/mL) | MIC [15]: 1.42 µM (≈ 2 µg/mL) | MIC [16]: 5.67 µM (≈ 7.99 µg/mL) | MIC [4]: 1.42 µM (≈ 2 µg/mL)

CC(C)C[C@H](NC(=O)[C@H](Cc1c[nH]c2ccccc12)NC(=O)[C@H](CCCCN)NC(=O)[C@H](CC(C)C)NC(=O)[C@H](CC(C)C)NC(=O)[C@H](Cc1c[nH]c2ccccc12)NC(=O)[C@@H](N)CCCCN)C(N)=O [KWLLKWL]
MIC [9]: 20.3 µM (≈ 20 µg/mL) | MIC [6]: 40.6 µM (≈ 40 µg/mL) | MIC [10]: ≥ 81.1 µM | MIC [11]: ≥ 81.1 µM | MIC [12]: 81.1 µM (≈ 79.9 µg/mL) | MIC [13]: > 81.1 µM | MIC [14]: ≥ 81.1 µM | MIC [15]: 20.3 µM (≈ 20 µg/mL) | MIC [16]: ≥ 81.1 µM | MIC [4]: 81.1 µM (≈ 79.9 µg/mL)

CC(C)C[C@H](NC(=O)[C@H](CCCCN)NC(=O)[C@H](Cc1c[nH]c2ccccc12)NC(=O)[C@H](CCCCN)NC(=O)[C@H](CC(C)C)NC(=O)[C@H](CCCCN)NC(=O)[C@H](Cc1c[nH]c2ccccc12)NC(=O)[C@H](CCCCN)NC(=O)[C@H](CC(C)C)NC(=O)[C@H](CCCCN)NC(=O)[C@@H](N)Cc1c[nH]c2ccccc12)C(=O)N[C@@H](CCCCN)C(N)=O [WKLKWKLKWKLK]
MIC (Acinetobacter baumannii): 2.83 µM (≈ 4.76 µg/mL) | MIC [6]: 4 µM (≈ 6.74 µg/mL) | MIC (Escherichia coli UB1005): 4 µM (≈ 6.74 µg/mL) | MIC (Escherichia coli): 2 µM (≈ 3.37 µg/mL) | MIC (Pseudomonas aeruginosa): 4 µM (≈ 6.74 µg/mL) | MIC [17]: 2 µM (≈ 3.37 µg/mL) | MIC [18]: 2 µM (≈ 3.37 µg/mL) | MIC [19]: 2 µM (≈ 3.37 µg/mL) | MIC (Staphylococcus aureus): 2 µM (≈ 3.37 µg/mL) | MIC [4]: 2 µM (≈ 3.37 µg/mL)

CC(C)C[C@H](NC(=O)[C@@H](N)Cc1c[nH]c2ccccc12)C(=O)N[C@@H](CCCCN)C(=O)N[C@@H](CCCCN)C(=O)N[C@@H](Cc1c[nH]c2ccccc12)C(N)=O [WLKKW]
MIC [9]: ≥ 105 µM | MIC [6]: > 105 µM | MIC [10]: ≥ 105 µM | MIC [11]: ≥ 105 µM | MIC [12]: > 105 µM | MIC [13]: > 105 µM | MIC [14]: ≥ 105 µM | MIC [15]: ≥ 105 µM | MIC [16]: ≥ 105 µM | MIC [4]: > 105 µM

CC(C)C[C@H](NC(=O)[C@H](CC(C)C)NC(=O)[C@@H](N)Cc1c[nH]c2ccccc12)C(=O)N[C@@H](CCCCN)C(=O)N[C@@H](Cc1c[nH]c2ccccc12)C(N)=O [WLLKW]
MIC [9]: ≥ 107 µM | MIC [6]: > 107 µM | MIC [10]: ≥ 107 µM | MIC [11]: ≥ 107 µM | MIC [12]: > 107 µM | MIC [13]: > 107 µM | MIC [14]: ≥ 107 µM | MIC [15]: ≥ 107 µM | MIC [16]: ≥ 107 µM | MIC [4]: > 107 µM

CC(C)C[C@H](NC(=O)[C@H](CCCN=C(N)N)NC(=O)[C@H](Cc1c[nH]c2ccccc12)NC(=O)[C@H](CCCN=C(N)N)NC(=O)[C@@H](NC(=O)[C@H](CCCCN)NC(=O)[C@H](Cc1c[nH]c2ccccc12)NC(=O)[C@H](CCCN=C(N)N)NC(=O)[C@H](CC(C)C)NC(=O)[C@H](CCCN=C(N)N)NC(=O)[C@@H](N)Cc1c[nH]c2ccccc12)[C@@H](C)O)C(=O)N[C@@H](CCCCN)C(N)=O [WRLRWKTRWRLK]
MIC (Acinetobacter baumannii): 4 µM (≈ 7.14 µg/mL) | MIC (Escherichia coli UB1005): 2 µM (≈ 3.57 µg/mL) | MIC (Escherichia coli): 2.83 µM (≈ 5.05 µg/mL) | MIC (Pseudomonas aeruginosa): 8 µM (≈ 14.3 µg/mL) | MIC [17]: 2 µM (≈ 3.57 µg/mL) | MIC [18]: 2 µM (≈ 3.57 µg/mL) | MIC (Staphylococcus aureus): 2 µM (≈ 3.57 µg/mL) | MIC [4]: 4 µM (≈ 7.14 µg/mL)

CC(C)C[C@H](NC(=O)[C@H](CCCN=C(N)N)NC(=O)[C@H](Cc1c[nH]c2ccccc12)NC(=O)[C@H](CCCN=C(N)N)NC(=O)[C@H](CC(C)C)NC(=O)[C@H](CCCN=C(N)N)NC(=O)[C@H](Cc1c[nH]c2ccccc12)NC(=O)[C@H](CCCN=C(N)N)NC(=O)[C@H](CC(C)C)NC(=O)[C@H](CCCN=C(N)N)NC(=O)[C@@H](N)Cc1c[nH]c2ccccc12)C(=O)N[C@@H](CCCN=C(N)N)C(N)=O [WRLRWRLRWRLR]
MIC (Acinetobacter baumannii): 2.83 µM (≈ 5.24 µg/mL) | MIC [6]: 4 µM (≈ 7.41 µg/mL) | MIC (Escherichia coli UB1005): 2 µM (≈ 3.7 µg/mL) | MIC (Escherichia coli): 2 µM (≈ 3.7 µg/mL) | MIC (Pseudomonas aeruginosa): 4 µM (≈ 7.41 µg/mL) | MIC [17]: 2 µM (≈ 3.7 µg/mL) | MIC [18]: 2 µM (≈ 3.7 µg/mL) | MIC [19]: 1 µM (≈ 1.85 µg/mL) | MIC (Staphylococcus aureus): 1 µM (≈ 1.85 µg/mL) | MIC [4]: 2 µM (≈ 3.7 µg/mL)
